The results in this text go back to patent US10166237B2, “Compounds and methods for inducing chondrogenesis” (The Scripps Research Institute, priority 2011, dated 2019).

SMILES strings stand for the structures.

The assay relates to human mesenchymal stem cells (hMSCs). Description: chondrogenic nodule formation by hMSCs (high throughput screen). It counts as cell-based. As to the method:
The primary screening assay was based upon the development of chondrogenic nodules. Chondrocytes can grow in monolayer in vitro, but to more closely mimic their native environment in the joint, the cells are routinely cultured in non-adherent conditions such as in pellet cultures or alginate bead suspensions.
In the actual screen of a library of 22,000 structurally diverse heterocycles, 10^4 primary hMSCs were plated in 384 well plates in serum free DMEM. The cells were treated with 5 μM of each compound and incubated for 4 days. […] To facilitate high throughput imaged-based detection, the chondrogenic nodules were stained with […]. The Nile Red stained nodules were quantified on an Acumen eX3 (high content imaging device) by excitation with a 488 laser for rapid detection of the nodules.
Primary hMSCs grown in a 96 well Greiner plates (50,000/well) were incubated for 4 days in the presence of the 5 uM of each DMSO or 100 nM of PRO1. On day 4, the cells were fixed with 4% formalin for 10 minutes, washed and stained with 1 μg/ml of Rhodamine B for 2 hours at room temperature.
For the molecule `N#Cc1ccc(NC(=O)c2ccccc2C#N)cc1` [Compound A01], the “Activity (chondrogenic nodules formed in % of cells)” value is reported as “** (chondrogenic nodules formed in at least 25% but less than 50% of cells)”.

With `N#Cc1ccc(NC(=O)c2ccccc2CC(=O)O)cc1` [Compound A06], the “Activity (chondrogenic nodules formed in % of cells)” value was “*** (chondrogenic nodules formed in at least 50% but less than 75% of cells)”.

As to `CC(=O)c1ccccc1C(=O)Nc1ccc(C#N)cc1` [Compound A09], the “Activity (chondrogenic nodules formed in % of cells)” value is on record as “** (chondrogenic nodules formed in at least 25% but less than 50% of cells)”.

As for `COC(=O)Nc1ccccc1C(=O)Nc1ccc(C#N)cc1` [Compound A11], the “Activity (chondrogenic nodules formed in % of cells)” value was “** (chondrogenic nodules formed in at least 25% but less than 50% of cells)”.

As to `N#Cc1ccc(NC(=O)c2ccccc2NC(N)=O)cc1` [Compound A12], the “Activity (chondrogenic nodules formed in % of cells)” value is on record as “** (chondrogenic nodules formed in at least 25% but less than 50% of cells)”.

As to `CS(=O)(=O)Nc1ccccc1C(=O)Nc1ccc(C#N)cc1` [Compound A13], the “Activity (chondrogenic nodules formed in % of cells)” value is reported as “** (chondrogenic nodules formed in at least 25% but less than 50% of cells)”.

Turning to `N#Cc1ccc(NC(=O)c2ccccc2S(=O)(=O)O)cc1` [Compound A22], the “Activity (chondrogenic nodules formed in % of cells)” value is “** (chondrogenic nodules formed in at least 25% but less than 50% of cells)”.

With `N#Cc1ccc(NC(=O)c2ccccc2S(N)(=O)=O)cc1` [Compound A23], the “Activity (chondrogenic nodules formed in % of cells)” value is recorded as “** (chondrogenic nodules formed in at least 25% but less than 50% of cells)”.

Take `CNS(=O)(=O)c1ccccc1C(=O)Nc1ccc(C#N)cc1` [Compound A24]: the “Activity (chondrogenic nodules formed in % of cells)” value is given as “** (chondrogenic nodules formed in at least 25% but less than 50% of cells)”.

Consider `N#Cc1ccc(NC(=O)c2ccc(C#N)cc2C(=O)O)cc1` [Compound B02], for which the “Activity (chondrogenic nodules formed in % of cells)” value is “** (chondrogenic nodules formed in at least 25% but less than 50% of cells)”.

As for `N#Cc1ccc(NC(=O)c2cc(C#N)ccc2C(=O)O)cc1` [Compound B03, sodium 4-cyano-2-[(4-cyanophenyl)carbamoyl]benzoate], the “Activity (chondrogenic nodules formed in % of cells)” value was “*** (chondrogenic nodules formed in at least 50% but less than 75% of cells)”.

Regarding `N#Cc1ccc(NC(=O)c2ccc(C(=O)O)cc2C(=O)O)cc1` [Compound B10], the “Activity (chondrogenic nodules formed in % of cells)” value is recorded as “** (chondrogenic nodules formed in at least 25% but less than 50% of cells)”.

On to `N#Cc1ccc(NC(=O)c2c(C(=O)O)cccc2C(=O)O)cc1` [Compound B12], for which the “Activity (chondrogenic nodules formed in % of cells)” value is recorded as “** (chondrogenic nodules formed in at least 25% but less than 50% of cells)”.

Consider `N#Cc1ccc(NC(=O)c2ccncc2C(=O)O)cc1` [Compound B19], for which the “Activity (chondrogenic nodules formed in % of cells)” value is given as “*** (chondrogenic nodules formed in at least 50% but less than 75% of cells)”.

Consider `N#Cc1ccc(NC(=O)c2cccnc2C(=O)O)cc1` [Compound B20], for which the “Activity (chondrogenic nodules formed in % of cells)” value is on record as “** (chondrogenic nodules formed in at least 25% but less than 50% of cells)”.

Take `N#Cc1ccc(NC(=O)c2ccccc2-c2ccccc2C(=O)O)cc1` [Compound B32]: the “Activity (chondrogenic nodules formed in % of cells)” value was “** (chondrogenic nodules formed in at least 25% but less than 50% of cells)”.

Consider `O=C(O)c1ccccc1C(=O)Nc1ccncc1` [Compound N01], for which the “Activity (chondrogenic nodules formed in % of cells)” value was “*** (chondrogenic nodules formed in at least 50% but less than 75% of cells)”.

With `O=C(O)c1ccccc1C(=O)Nc1ccccc1OC(F)F` [Compound N04], the “Activity (chondrogenic nodules formed in % of cells)” value is listed as “*** (chondrogenic nodules formed in at least 50% but less than 75% of cells)”.

As for `O=C(O)c1ccccc1C(=O)Nc1cccc(OC(F)F)c1` [Compound N05], the “Activity (chondrogenic nodules formed in % of cells)” value was “** (chondrogenic nodules formed in at least 25% but less than 50% of cells)”.

Take `CC(=O)c1cccc(NC(=O)c2ccccc2C(=O)O)c1` [Compound N08]: the “Activity (chondrogenic nodules formed in % of cells)” value is recorded as “**** (chondrogenic nodules formed in at least 75% of cells)”.
